In test [1] the test system is Bel-7404 cells. In words: Cell cycle analysis by flow cytometry with PI staining. Conditions: Bel-7404, 3 μM Chiauranib, 48 hours. Type of test: cell-based, human. As to the method: (§1) Human hepatoma cell line Bel-7402 and Bel-7404 were purchased from the Cell Resource Center of Shanghai Institutes for Biological Sciences, CAS, and routinely cultured at 37° C. under 5% CO2, in a culture medium of RPMI-1640 (Gibco) containing 10% fetal bovine serum (FBS; Gibco) and 1% Penicillin-Streptomycin (HyClone). Trypsin was purchased from Gibco. Crystal violet, RNase A (10 mg/mL) solution, propidium iodide (PI), Triton X-100 were purchased from Sangon Biotech (Shanghai) Co., Ltd. MTS cell viability assay kits, Caspase-Glo 3/7 assay kits were purchased from Promega. Nude mice were purchased from Guangdong Medical Laboratory Animal Center.
The cells of Bel-7404 at the log phase stage were digested by trypsin, collected and counted. The cells were seeded in a 6-well plate at the density of 10^6 cells per well in a total of 18 wells. […] The fixed samples were allowed to stand at 4° C. for more than 12 hours, and analyzed by the flow cytometry assay within 1 week.
PBS, 10 mg/mL PI stock solution, 10 mg/mL RNase A solution and Triton X-100 were mixed at a ratio of 1000:5:2:1 to form a working dye solution. […] The filtrate was analyzed for cell cycles by the flow cytometry assay (each sample counted 20,000 cells).

The test system of the next test is SMMC-7721 cells. Put plainly: Colony forming assay (crystal violet). It counts as cell-based. Conditions: SMMC-7721, Chiauranib monotreatment 5 μM, 2-3 weeks. As to the method:
(§2) The SMMC-7721, Bel-7404 cell lines at the log phase stage were digested by trypsin, collected and counted, then seeded in a 6-well cell culture plate at the density of 500 cells/1.8 mL in each well, and cultured at 37° C. under 5% CO2. After cultured overnight, the cells were administered according to the grouping and the final concentration dosages shown in FIG. 2 (the final volume of each well after administration was 2 mL). The culture media and drugs were replaced every 3 days to keep the culture system and the dosage for each well stable.
After cultured for 2-3 weeks, when there were visible cell colonies in the culture plate, the culture was terminated. The supernatants were discarded, and the plate was washed carefully with PBS twice. 1 mL of 75% ethanol solution was added to each well to fix the cells, and the fixative solution was discarded after 15 min. Then the cells were stained for 15 min by adding 1 mL of crystal violet solution to each well, and the staining solution was washed slowly with running water and air dried. The stained positive cell colonies in each well of the culture plate were photographed to compare their density.

Test [2] concerns Bel-7404 cells. In words: Colony forming assay (crystal violet). Type of test: cell-based, human. The note with it: Bel-7404, Chiauranib monotreatment 3 μM, 2-3 weeks. The procedure:
as §1, §2
After cultured for 2-3 weeks, when there were visible cell colonies in the culture plate, the culture was terminated. The supernatants were discarded, and the plate was washed carefully with PBS twice. […]

Test [3] concerns Bel-7404 cells. Put plainly: Cell apoptosis by Caspase 3/7 assay. It counts as cell-based, human. Conditions: Bel-7404, 3 μM Chiauranib monotreatment, 48 hours. The procedure: as §1
The cells of Bel-7404 at the log phase stage were digested by trypsin, collected and counted. The cells were seeded in a 96-well plate at density of 2000 cells per well in a total of 18 wells. […]
The 96-well plates containing the treated cells were taken out of the incubator and equilibrated to room temperature. […] The […] value of each sample was measured by a luminometer. The […] value can directly reflect the proportion of apoptotic cells in each well, and can be used to calculate and compare the cell viability of the different groups.

Test [4] deals with Bel-7404 cells. In words: MTS cell viability assay. It counts as cell-based, human. Conditions: Bel-7404, monotreatment, 120 hours, dose-dependent. The procedure: as §1
(§3) The Bel-7402, Bel-7404 cell lines were digested by trypsin, collected and counted, and then seeded in a 96-well cell culture plate at the density of 3,000 cells/180 μL in each well, and cultured at 37° C. under 5% CO2. […] After incubation at 37° C. for about 1 hour, the absorbance of each well was read at 490 nm wavelength with a microplate reader. The OD490-T value of each administered well and the OD490-T0 value of the negative control well after background deduction were obtained by subtracting OD490-BLK from the absorbance reading value of each well.
(§4) The relative survival rate of the cells in each administered well was calculated according to the following formula: […]
(In general: Tetrazolium assays rely on reduction of a dye to a coloured formazan, in cell work by metabolically active cells.)

For another test, the system named is Bel-7402 cells. In words: MTS cell viability assay. Type of test: cell-based, human. Conditions: Bel-7402, monotreatment, 120 hours, dose-dependent. The procedure: as §1, §3, §4
Another test deals with Bel-7404 cell xenograft. In words: Tumor cell xenograft model in nude mice. Type of test: in vivo. The note with it: 2.5 mg/kg Chiauranib, intragastrically once a day, 33 days, vs solvent control. As to the method: The cells of Bel-7404 were cultured to expend to a large amount, and maintained at a log phase state. After the number of the cells reached the required amount, they were digested with trypsin, collected, washed twice with a large amount of PBS to remove the trypsin and serum, and centrifuged at 800 rpm for 10 min at room temperature and the cell supernatants were discarded. The cells were resuspended in the FBS-free RPIM-1640 culture medium, and adjusted the cell density to 10^7/300 μL.
Under aseptic conditions, each nude mouse was injected subcutaneously on the back with 300 μL/injection, one injection per nude mouse. A 1 mL disposable medical syringe for injection was used, and the injection site and direction were roughly same for each nude mouse.
One day after cell implanting, the nude mice were randomly divided into four groups (namely, solvent control group, Chiauranib 2.5 mg/kg group, Chidamide 20 mg/kg group and the combined administration group), housed in separate cages after marked, administered in groups and tumor formation of each mouse was observed every day. […] Every 2 days, the longest diameter of the tumor (length) and the widest diameter (width) perpendicular to the longest diameter were measured with a vernier caliper. The tumor volume was calculated by the formula TS=length×(width)^2/2 and recorded. […]

Results on 1 compound are retold here after US20210315881A1, “COMBINATION OF HISTONE DEACETYLASE INHIBITOR AND PROTEIN KINASE INHIBITOR AND PHARMACEUTICAL USE THEREOF” (SHENZHEN CHIPSCREEN BIOSCIENCES CO., LTD., priority 2018, published 2021).

As for `COc1ccc2c(Oc3ccc4c(C(=O)Nc5ccccc5N)cccc4c3)ccnc2c1` [Chiauranib], the “cells in G2/M phase and polyploid cells” value in the test with Bel-7404 cells [1] was “slightly increased”. For the same compound, the results for the “formation of cell colonies” value in the test with SMMC-7721 cells and in the test on Bel-7404 cells [2] were “relatively significant effect on the formation of cell colonies” and “affected somewhat on the formation of cell colonies”, respectively. The “proportion of apoptotic cells” value with Bel-7404 cells [3] is “increased the proportion of apoptotic cells to a certain extent”. Moreover, the “inhibitory effect on tumor cell proliferation (survival rate)” value with Bel-7404 cells [4] and in the test with Bel-7402 cells was “a certain inhibitory effect on tumor cell proliferation” throughout. Further, in the test with Bel-7404 cell xenograft, the “tumor volume of tumor-bearing nude mice” value is reported as “inhibited to a certain extent”.
